Measured values: publication PMC5515859, “Metabolism of F18, a Derivative of Calanolide A, in Human Liver Microsomes and Cytosol” (Frontiers in Pharmacology, 2017)
Where two headings read alike, the source gives them in different places.

Assays:
[1] = tested on: carbonyl reductases in HLcy; experiment: Inhibition of carbonyl reduction of F18 (formation of M3-1 and M3-2) by chemical inhibitors in HLcy; type: in vitro ADME, human; conditions: F18 10 μM, 10 min
Procedure: F18 (10 μM) was incubated with HLMs (0.5 mg/mL) and the NADPH-generating system for 30 min or with HLcy and a cofactor (NADPH or NADH) for 10 min in the presence of chemical inhibitors under the above-described conditions. Control incubations using the vehicles but not the chemical inhibitors were also performed. The formation of M3-1 and M3-2 was quantified by LC-MS/MS.
The amounts of F18, M1, M2-9, M3-1, M3-2, M5-2, M5-3, M5-4, and M5-5 in the incubations were simultaneously quantified with the LC-MS/MS system. […] The sheath gas, auxiliary gas, spray voltage and tube lens parameters were the same as those for the metabolic profiling studies.

CYP2B6 = conditions: cited from earlier work
CYP2C9 = conditions: cited from earlier work
monkey liver microsomes = experiment: Incubation of F18 with monkey liver microsomes, metabolite profiling; type: in vitro ADME; parameters: key: +: Metabolite detected; −: metabolite not detected; conditions: F18 50 μM, 1 h
Procedure: (§1) A stock solution of F18 (5 mM) was prepared in methanol. F18 (50 μM) was incubated with RLMs/DLMs/MLMs/HLMs and HLcy (0.5 mg protein/mL) in 50 mM Tris-HCl buffer containing 5 mM MgCl2 (pH 7.4) in a final volume of 200 μL. The final concentration of methanol in the incubation system was 1% (v/v). After 3 min of preincubation at 37°C, the reactions were initiated by the addition of NADPH-regenerating system (10-mM β-NADP, 100-mM 6-G-P and 10-U/mL 6-G-P-DH) or NADH. After incubation for 1 h, the reactions were terminated by the addition of two volumes of ice-cold acetonitrile. Samples without NADPH or NADH were included as controls. The incubation mixture was vortexed and centrifuged at 13,300 × g for 5 min. A 10 μL aliquot of the supernatant was injected into an LC-tandem mass spectrometer (LC-MS/MS) for analysis.
(§2) Metabolic profiling studies were performed with a Finnigan TSQ Quantum MS instrument with an electrospray ionization probe and a Finnigan SURVEYOR HPLC system (Thermo Finnigan, San Jose, CA, USA). HPLC was performed with a Zorbax SB-C18 column (2.1 × 100 mm, 3.5 μm, Agilent Corporation, CA, USA) with a column temperature of 35°C and a flow rate of 200 μL/min. F18 and its metabolites were eluted using a linear gradient method with a mobile phase consisting of solvent A (water with 0.1% formic acid) and solvent B (acetonitrile with 0.1% formic acid). […] The samples were analyzed in the positive-ionization mode, and the TSQ capillary temperature was set to 350°C. Nitrogen was used as both the sheath gas and the auxiliary gas and was delivered at 30 psi and 15 psi, respectively. The spray voltage and tube lens were set to 3,800 V and 123 V, respectively. The full-width half maximum (FWHM) was set to 0.7. MS data were acquired in the selective ion-recording mode or by collecting full scans from 200 to 600 m/z at 1 scan/s. The mass spectrometer and HPLC system were operated using Xcalibur 2.0.7 software.

human liver cytosol = experiment: Incubation of F18 with human liver cytosol, metabolite profiling; type: in vitro ADME; parameters: key: +: Metabolite detected; −: metabolite not detected; conditions: F18 50 μM, 1 h
Procedure: as §1, §2

VSV-G/HIV-1 viruses = experiment: microbe, parasite or virus in culture; type: cell-based; conditions: Human immunodeficiency virus 1, HEK-293T, 48 h, read-out: IC50, inhibition of HIV-1 replication
dog liver microsomes = experiment: Incubation of F18 with dog liver microsomes, metabolite profiling; type: in vitro ADME, beagle dog; parameters: key: +: Metabolite detected; −: metabolite not detected; conditions: F18 50 μM, 1 h
Procedure: as §1, §2

rat liver microsomes = experiment: Incubation of F18 with rat liver microsomes, metabolite profiling; type: in vitro ADME; parameters: key: +: Metabolite detected; −: metabolite not detected; conditions: F18 50 μM, 1 h
Procedure: as §1, §2

human liver microsomes = experiment: Incubation of F18 with human liver microsomes, metabolite profiling by LC-MS/MS; type: in vitro ADME; parameters: key: +: Metabolite detected; −: metabolite not detected; conditions: F18 50 μM, 1 h
Procedure: as §1, §2

CYP2C8 = tested on: CYP2C8; parameters: method as in FDA Drug Development and Drug Interactions; conditions: ref FDA Drug Development and Drug Interactions, cited from earlier work; for Ki: read-out: inhibitor Ki, CYP2C8
[2] = HLcy with NADH, high concentration: dicumarol 50 μM, 4-methylpyrazole 500 μM
[3] = HLcy with NADH, low concentration: dicumarol 10 μM, 4-methylpyrazole 100 μM
[4] = HLcy with NADPH, high concentration: dicumarol 50 μM, 4-methylpyrazole 500 μM
[5] = HLcy with NADPH, low concentration: dicumarol 10 μM, 4-methylpyrazole 100 μM
[6] = HLcy, cofactor not given, high concentration 50 μM
[7] = HLcy, cofactor not given, low concentration 10 μM
[8] = read-out: inhibitor Ki, CYP2C9, ref FDA Drug Development and Drug Interactions
[9] = read-out: inhibitor Ki, CYP2B6, ref FDA Drug Development and Drug Interactions

## Cc1cn[nH]c1 [4-methylpyrazole]
[1]; [2]
  Percentage of inhibition of the formation of M3-1, H: N.I.
  Percentage of inhibition of the formation of M3-2, H: N.I.
[1]; [3]
  Percentage of inhibition of the formation of M3-1, L: N.I.
  Percentage of inhibition of the formation of M3-2, L: N.I.
[1]; [4]
  Percentage of inhibition of the formation of M3-1, H: N.I.
  Percentage of inhibition of the formation of M3-2, H: N.I.
[1]; [5]
  Percentage of inhibition of the formation of M3-1, L: N.I.
  Percentage of inhibition of the formation of M3-2, L: N.I.

## C[C@H](CCC(=O)O)[C@H]1CC[C@H]2[C@@H]3[C@H](O)C[C@@H]4C[C@H](O)CC[C@]4(C)[C@H]3CC[C@]12C [Chenodeoxycholic, chenodeoxycholic acid]
[1]; [6]
  Percentage of inhibition of the formation of M3-1, H: 69.3%
  Percentage of inhibition of the formation of M3-2, H: 81.2%
[1]; [7]
  Percentage of inhibition of the formation of M3-1, L: 50.8%
  Percentage of inhibition of the formation of M3-2, L: 62.3%

## COC(=O)[C@H](c1ccccc1Cl)N1CCc2sccc2C1 [Clopidogrel]
CYP2B6
  Ki: 500 nM

## O=C(O)Cc1ccccc1Nc1c(Cl)cccc1Cl [Diclofenac]
CYP2C9
  Km: 3.4 to 52 µM

## O=c1oc2ccccc2c(O)c1Cc1c(O)c2ccccc2oc1=O [Dicumarol, dicumarol]
[1]; [2]
  Percentage of inhibition of the formation of M3-1, H: 51.5%
  Percentage of inhibition of the formation of M3-2, H: 49.6%
[1]; [3]
  Percentage of inhibition of the formation of M3-1, L: 16.0%
  Percentage of inhibition of the formation of M3-2, L: 6.7%
[1]; [4]
  Percentage of inhibition of the formation of M3-1, H: 70.6%
  Percentage of inhibition of the formation of M3-2, H: 82.2%
[1]; [5]
  Percentage of inhibition of the formation of M3-1, L: 52.3%
  Percentage of inhibition of the formation of M3-2, L: 67.7%

## OC(Cn1cncn1)(Cn1cncn1)c1ccc(F)cc1F [Fluconazole]
CYP2C9; [8]
  Ki: 7000 nM

## O=C(O)c1ccccc1Nc1cccc(C(F)(F)F)c1 [Flufenamic acid, flufenamic acid]
[1]; [6]
  Percentage of inhibition of the formation of M3-1, H: 87.9%
  Percentage of inhibition of the formation of M3-2, H: 94.0%
[1]; [7]
  Percentage of inhibition of the formation of M3-1, L: 82.4%
  Percentage of inhibition of the formation of M3-2, L: 88.5%

## CC1=CC(=O)c2ccccc2C1=O [Menadione, menadione]
[1]; [6]
  Percentage of inhibition of the formation of M3-1, H: 45.9%
  Percentage of inhibition of the formation of M3-2, H: 58.4%
[1]; [7]
  Percentage of inhibition of the formation of M3-1, L: 7.7%
  Percentage of inhibition of the formation of M3-2, L: 20.1%

## CC=Cc1cc(=O)oc2c3c(c4c(c12)OC(C)(C)C=C4)OC(CCl)CC3=O (centres unmarked) [Metabolite M2-9]
Monkey liver microsomes
  F18 metabolite detected in MLM: −
Human liver cytosol
  F18 metabolite detected in HLcy with NADH: −
  F18 metabolite detected in HLcy with NADPH: −
VSV-G/HIV-1 viruses
  IC50: 110 nM
Dog liver microsomes
  F18 metabolite detected in DLM: −
Rat liver microsomes
  F18 metabolite detected in RLM: +
Human liver microsomes
  F18 metabolite detected in HLM: +

## CC(O)Cc1cc(=O)oc2c3c(c4c(c12)OC(C)(C)C=C4)OC(CCl)CC3=O (centres unmarked) [Metabolite M5-2]
Monkey liver microsomes
  F18 metabolite detected in MLM: +
Human liver cytosol
  F18 metabolite detected in HLcy with NADH: −
  F18 metabolite detected in HLcy with NADPH: −
Dog liver microsomes
  F18 metabolite detected in DLM: +
Rat liver microsomes
  F18 metabolite detected in RLM: +
Human liver microsomes
  F18 metabolite detected in HLM: +

## CC(O)Cc1cc(=O)oc2c3c(c4c(c12)OC(C)(C)C=C4)OC(CCl)CC3=O (centres unmarked) [Metabolite M5-3]
Monkey liver microsomes
  F18 metabolite detected in MLM: +
Human liver cytosol
  F18 metabolite detected in HLcy with NADH: −
  F18 metabolite detected in HLcy with NADPH: −
Dog liver microsomes
  F18 metabolite detected in DLM: +
Rat liver microsomes
  F18 metabolite detected in RLM: +
Human liver microsomes
  F18 metabolite detected in HLM: +

## CCC(O)c1cc(=O)oc2c3c(c4c(c12)OC(C)(C)C=C4)OC(CCl)CC3=O (centres unmarked) [Metabolite M5-4]
Monkey liver microsomes
  F18 metabolite detected in MLM: +
Human liver cytosol
  F18 metabolite detected in HLcy with NADH: −
  F18 metabolite detected in HLcy with NADPH: −
Dog liver microsomes
  F18 metabolite detected in DLM: −
Rat liver microsomes
  F18 metabolite detected in RLM: +
Human liver microsomes
  F18 metabolite detected in HLM: +

## CCC(O)c1cc(=O)oc2c3c(c4c(c12)OC(C)(C)C=C4)OC(CCl)CC3=O (centres unmarked) [Metabolite M5-5]
Monkey liver microsomes
  F18 metabolite detected in MLM: +
Human liver cytosol
  F18 metabolite detected in HLcy with NADH: −
  F18 metabolite detected in HLcy with NADPH: −
Dog liver microsomes
  F18 metabolite detected in DLM: −
Rat liver microsomes
  F18 metabolite detected in RLM: +
Human liver microsomes
  F18 metabolite detected in HLM: +

## c1ccc(C2(N3CCCCC3)CCCCC2)cc1 [Phencyclidine]
CYP2B6; [9]
  Ki: 10000 nM

## CCC1(c2ccccc2)C(=O)NC(=O)NC1=O [Phenobarbital, phenobarbital]
[1]; [6]
  Percentage of inhibition of the formation of M3-1, H: N.I.
  Percentage of inhibition of the formation of M3-2, H: N.I.
[1]; [7]
  Percentage of inhibition of the formation of M3-1, L: N.I.
  Percentage of inhibition of the formation of M3-2, L: N.I.

## O=c1c(O)c(-c2ccc(O)c(O)c2)oc2cc(O)cc(O)c12 [Quercetin, quercetin]
CYP2C8
  Ki: […]
[1]; [6]
  Percentage of inhibition of the formation of M3-1, H: 80.4%
  Percentage of inhibition of the formation of M3-2, H: 87.0%
[1]; [7]
  Percentage of inhibition of the formation of M3-1, L: 41.5%
  Percentage of inhibition of the formation of M3-2, L: 54.6%

## CC(=O)O[C@H]1C(=O)[C@@]2(C)[C@H]([C@H](OC(=O)c3ccccc3)[C@]3(O)C[C@H](OC(=O)[C@H](O)[C@@H](NC(=O)c4ccccc4)c4ccccc4)C(C)=C1C3(C)C)[C@]1(OC(C)=O)CO[C@@H]1C[C@@H]2O [Taxol]
CYP2C8; Taxol 6-hydroxylation, N-DesethylAmodiaquine, read-out: substrate Km, CYP2C8
  Km: 5.4 to 19 µM

## COc1cc(Cc2cnc(N)nc2N)cc(OC)c1OC [Trimethoprim]
CYP2C8
  Ki: 32000 nM

## CC(NC(C)(C)C)C(=O)c1cccc(Cl)c1 (centres unmarked) [bupropion]
CYP2B6; read-out: substrate Km, CYP2B6, bupropion-hydroxylation, ref FDA Drug Development and Drug Interactions
  Km: 67 to 168 µM

## CNCCC(Oc1ccc(C(F)(F)F)cc1)c1ccccc1 (centres unmarked) [fluoxetine]
CYP2C9; [8]
  Ki: 18000 to 41000 nM

## CCc1ccc(CCOc2ccc(CC3SC(=O)NC3=O)cc2)nc1 (centres unmarked) [pioglitazone]
CYP2C8
  Ki: 1700 nM

## medroxyprogesterone
[1]; [6]
  Percentage of inhibition of the formation of M3-1, H: 24.9%
  Percentage of inhibition of the formation of M3-2, H: 38.8%
[1]; [7]
  Percentage of inhibition of the formation of M3-1, L: 24.3%
  Percentage of inhibition of the formation of M3-2, L: 35.8%
